Data published in the RepoRT retention time repository (doi:10.1016/j.foodchem.2012.08.062).

Assay: RP, Waters ACQUITY UPLC BEH Shield RP18, 150 × 3 mm, 1.7 µm, 40 °C, 0.5 mL/min, estimated dead time 1.4 min; A: water + 0.1% formic acid; B: acetonitrile + 0.1% formic acid; gradient (min/%B) 0/0 9.91/26 18.51/65 18.76/100 20.76/100
Settings: stereoisomer not certain

Row | LC retention time | Compound
1 | 17.1 min | O=C1CC(c2ccc(O)cc2)Oc2cc(O)cc(O)c21 (stereo not given)
2 | 16.7 min | O=c1c(O)c(-c2ccc(O)c(O)c2)oc2cc(O)cc(O)c12
3 | 13 min | CC1OC(OC2C(Oc3cc(O)c4c(c3)OC(c3ccc(O)cc3)CC4=O)OC(CO)C(O)C2O)C(O)C(O)C1O (stereo not given)
4 | 18.4 min | O=c1c(O)c(-c2ccc(O)cc2)oc2cc(O)cc(O)c12
5 | 14.8 min | O=C1c2c(O)cc(O)cc2OC(c2ccc(O)cc2)C1O (stereo not given)
6 | 18.1 min | COc1cc(-c2oc3cc(O)cc(O)c3c(=O)c2O)ccc1O
7 | 12.7 min | O=C(O)C=Cc1ccc(O)cc1
8 | 8.61 min | O=C(O)Cc1ccc(O)cc1
9 | 13.3 min | O=C1c2c(O)cc(O)cc2OC(c2ccc(O)c(O)c2)C1O (stereo not given)
10 | 17 min | O=C(CCc1ccc(O)cc1)c1c(O)cc(O)cc1O

Second part, the compound before the results:

Row | Compound | LC retention time
11 | O=c1c(OC2OC(CO)C(O)C(O)C2O)c(-c2ccc(O)cc2)oc2cc(O)cc(O)c12 (stereo not given) | 13.8 min
12 | COc1cc(CCC(=O)O)ccc1O | 11.3 min
13 | CCCOC(=O)c1cc(O)c(O)c(O)c1 | 13.8 min
14 | CC1OC(OCC2OC(Oc3c(-c4ccc(O)c(O)c4)oc4cc(O)cc(O)c4c3=O)C(O)C(O)C2O)C(O)C(O)C1O (stereo not given) | 12.6 min
15 | O=C(O)c1ccc(O)c(O)c1 | 7.05 min
16 | O=c1cc(-c2ccc(O)c(O)c2)oc2cc(O)cc(O)c12 | 16.6 min
17 | O=c1cc(-c2ccc(O)cc2)oc2cc(O)cc(O)c12 | 18 min
18 | O=c1c(OC2OC(CO)C(O)C2O)c(-c2ccc(O)c(O)c2)oc2cc(O)cc(O)c12 (stereo not given) | 13.7 min
19 | COc1cc(C=CC(=O)O)ccc1O | 12.8 min
20 | O=c1c(O)c(-c2ccccc2)oc2cc(O)cc(O)c12 | 20.3 min
21 | O=C(CCc1ccc(O)cc1)c1c(O)cc(O)cc1OC1OC(CO)C(O)C(O)C1O (stereo not given) | 13.7 min
22 | O=C(O)CCc1ccc(O)c(O)c1 | 8.65 min
23 | O=C(O)c1ccccc1O | 14.5 min
24 | O=c1cc(-c2ccc(O)c(O)c2)oc2cc(OC3OC(CO)C(O)C(O)C3O)cc(O)c12 (stereo not given) | 12.7 min
25 | O=C(O)c1cc(O)c(O)c(O)c1 | 4.79 min
26 | Oc1cc(O)c2c(c1)OC(c1ccc(O)c(O)c1)C(O)C2c1c(O)cc(O)c2c1OC(c1ccc(O)c(O)c1)C(O)C2 (stereo not given) | 10.2 min
27 | O=c1cc(-c2ccc(O)cc2)oc2cc(OC3OC(CO)C(O)C(O)C3O)cc(O)c12 (stereo not given) | 13.7 min
28 | CC1OC(Oc2c(-c3ccc(O)c(O)c3)oc3cc(O)cc(O)c3c2=O)C(O)C(O)C1O (stereo not given) | 14 min
29 | O=C(C=Cc1ccc(O)c(O)c1)OC1CC(O)(C(=O)O)CC(O)C1O (stereo not given) | 8.3 min
30 | COc1cc(C=CC(=O)O)cc(OC)c1O | 12.7 min
